Measurements from ChEMBL document CHEMBL1201862, “PubChem BioAssay data set” (2004).
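Exposure lasted 48 hours, with cells grown in 96-well plates and compounds tested at five concentrations. GI50: concentration for 50% inhibition of growth.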 The source made the active and inactive calls. Cut-off read from the data, not from the text of the source: active = GI50 up to about 1.1 µM and inactive = higher.

Assays:
Test in all cases: NCI tumour cell line growth inhibition, 48 h
OVCAR-8 = system: OVCAR-8
IGROV-1 = system: IGROV-1
SNB-75 = system: SNB-75
SF-295 = system: SF-295
SR = system: SR
M14 = system: M14
NCI-H522 = system: NCI-H522
UACC-62 = system: UACC-62
U-251 = system: U-251
SF-539 = system: SF-539
TK-10 = system: TK-10
UO-31 = system: UO-31
SK-OV-3 = system: SK-OV-3
CCRF-CEM = system: CCRF-CEM
HT-29 = system: HT-29
SK-MEL-28 = system: SK-MEL-28
SF-268 = system: SF-268

Measured: GI50

C=C(C)C1CC=C(C(=O)O)CC1 (configuration not stated)
inactive: OVCAR-8 1200 µM | IGROV-1 774 µM | SNB-75 1200 µM | SF-295 1090 µM | SR 1160 µM | M14 1750 µM | NCI-H522 887 µM | UACC-62 741 µM | U-251 1060 µM | SF-539 1070 µM | TK-10 1580 µM | UO-31 1190 µM | SK-OV-3 2070 µM | CCRF-CEM 863 µM | HT-29 1450 µM | SK-MEL-28 1010 µM | SF-268 1190 µM

Cc1c(Cl)ccc2[s+]snc12
inactive: OVCAR-8 21.6 µM | IGROV-1 48.8 µM | SNB-75 67.6 µM | SF-295 > 100 µM | SR 25.2 µM | M14 24.5 µM | NCI-H522 19.6 µM | UACC-62 22.3 µM | U-251 25.3 µM | SF-539 21.4 µM | TK-10 62.7 µM | UO-31 23.9 µM | SK-OV-3 > 100 µM | CCRF-CEM 23.2 µM | HT-29 34.4 µM | SK-MEL-28 29.4 µM | SF-268 23.8 µM

CC1=CC(=O)NP(=O)(Oc2ccc(C)cc2)N1 (configuration not stated)
inactive: OVCAR-8 > 100 µM | IGROV-1 > 100 µM | SNB-75 > 100 µM | SF-295 > 100 µM | SR > 100 µM | M14 > 100 µM | NCI-H522 > 100 µM | UACC-62 > 100 µM | U-251 > 100 µM | SF-539 > 100 µM | TK-10 > 100 µM | UO-31 > 100 µM | SK-OV-3 > 100 µM | CCRF-CEM > 100 µM | HT-29 > 100 µM | SK-MEL-28 > 100 µM | SF-268 > 100 µM

CC(=O)OCC1OC(N2C(=O)C(=O)c3ccccc32)C(OC(C)=O)C(OC(C)=O)C1OC(C)=O (configuration not stated)
inactive: OVCAR-8 > 100 µM | IGROV-1 > 100 µM | SNB-75 > 100 µM | SF-295 > 100 µM | SR > 100 µM | M14 > 100 µM | NCI-H522 > 100 µM | UACC-62 > 100 µM | U-251 > 100 µM | SF-539 > 100 µM | TK-10 > 100 µM | UO-31 > 100 µM | SK-OV-3 > 100 µM | CCRF-CEM > 100 µM | HT-29 > 100 µM | SK-MEL-28 > 100 µM | SF-268 > 100 µM

COC(=O)C1=C(C(=O)OC)C2C(C)=CC(C)=CN2C(C#N)=C(SC)S1 (configuration not stated)
inactive: OVCAR-8 22.4 µM | IGROV-1 > 10 µM | SNB-75 23.2 µM | SF-295 31 µM | SR 19 µM | M14 18 µM | NCI-H522 16.1 µM | UACC-62 > 10 µM | U-251 31 µM | SF-539 19.2 µM | TK-10 35.2 µM | UO-31 12.7 µM | SK-OV-3 46.3 µM | CCRF-CEM 17.4 µM | HT-29 21.1 µM | SK-MEL-28 19.3 µM | SF-268 20.6 µM

Cc1cccc(C)c1NC(=O)CCC(=O)CC(=O)C(C)C
inactive: OVCAR-8 > 100 µM | IGROV-1 > 100 µM | SNB-75 > 100 µM | SF-295 > 100 µM | SR > 100 µM | M14 > 100 µM | NCI-H522 > 100 µM | UACC-62 > 100 µM | U-251 > 100 µM | SF-539 > 100 µM | TK-10 > 100 µM | UO-31 > 100 µM | SK-OV-3 > 100 µM | CCRF-CEM > 100 µM | HT-29 > 100 µM | SK-MEL-28 > 100 µM | SF-268 > 100 µM
